Literature values in paper PMC12005229, “Final results from the phase Ia/Ib study of the novel bromodomain and extra-terminal domain inhibitor, BI 894999, in patients with advanced solid tumors or diffuse large B-cell lymphoma” (ESMO Open, 2025).

What was measured:
BRD4-BD2 = system: BRD4-BD2; set-up: method as in PMID 35444289; details: read-out: IC50, inhibition of interaction of acetylated histone H4-derived peptide with BRD4-BD2; cited from earlier work
BRD4-BD1 = system: BRD4-BD1; set-up: method as in PMID 35444289; details: read-out: IC50, inhibition of interaction of acetylated histone H4-derived peptide with BRD4-BD1; cited from earlier work
[1] = system: nuclear protein in testis (NUT) carcinoma xenograft models; set-up: method as in PMID 35444289; details: cited from earlier work
[2] = system: colorectal cancer (CRC) cell lines; set-up: method as in earlier work; details: cited from earlier work

CNc1nc(-c2nc3ccc(N4CCN(C)CC4)cc3n2Cc2ccccc2)cn2c(C)nnc12 [BI 894999]
IC50 (BRD4-BD2): 0.041 ± 0.03 µM
IC50 (BRD4-BD1): 0.005 ± 0.003 µM
effect in NUT carcinoma xenograft models [1]: tumor regressions
activity against colorectal cancer (CRC) cell lines [2]: demonstrated activity
